pKd: −log10 of the molar value. Values belong to the compound of their own block, whether it stands above or below them.
How the values were obtained:
[1] = test system: DIR2s_GAAACAC (RNA, aptamer) GGAUGCGCCUUGAAAAGCCUGCGAAACACGCAGCUGGUGAAUGACAGCUAUGGCGCAUCC; assay: fluorescence activation; settings: 150 mM NaCl, 5 mM MgCl2; 50 mM Tris pH 7.4, 20 °C; loop version (UUCG or GAAACAC) not stated
[2] = test system: A40U (RNA, aptamer) GGAUGCGCCUUGAAAAGCCUGCGAAACACGCAGCUGGUGUAUGACAGCUAUGGCGCAUCC; assay: fluorescence activation; settings: 150 mM NaCl, 5 mM MgCl2; 50 mM Tris pH 7.4, 20 °C; RNA 3 µM, dye 6 µM; fluorescence as WT
[3] = test system: G39, A40, A41 to U (RNA, aptamer) GGAUGCGCCUUGAAAAGCCUGCGAAACACGCAGCUGGUUUUUGACAGCUAUGGCGCAUCC; assay: fluorescence activation; settings: 150 mM NaCl, 5 mM MgCl2; 50 mM Tris pH 7.4, 20 °C; RNA 3 µM, dye 6 µM; fluorescence abolished
[4] = test system: DIR2s_GAAACAC (RNA, aptamer) GGAUGCGCCUUGAAAAGCCUGCGAAACACGCAGCUGGUGAAUGACAGCUAUGGCGCAUCC; assay: X-ray crystal structure, 1.86 Å; settings: 10 mM MgCl2, 1.8 M Li2SO4; 50 mM MES pH 5.6; ternary complex with Fab BL3-6
[5] = test system: DIR2s_WT (UUCG) (RNA, aptamer) GGAUGCGCCUUGAAAAGCCUGCUUCGGCAGCUGGUGAAUGACAGCUAUGGCGCAUCC; assay: fluorescence activation; settings: 150 mM NaCl, 5 mM MgCl2; 50 mM Tris pH 7.4, 20 °C
[6] = test system: A41U (RNA, aptamer) GGAUGCGCCUUGAAAAGCCUGCGAAACACGCAGCUGGUGAUUGACAGCUAUGGCGCAUCC; assay: fluorescence activation; settings: 150 mM NaCl, 5 mM MgCl2; 50 mM Tris pH 7.4, 20 °C; RNA 3 µM, dye 6 µM; fluorescence as WT
[7] = test system: Abasic G39 (RNA, aptamer, abasic at 39) GGAUGCGCCUUGAAAAGCCUGCGAAACACGCAGCUGGUNAAUGACAGCUAUGGCGCAUCC; assay: fluorescence activation; settings: 150 mM NaCl, 5 mM MgCl2; 50 mM Tris pH 7.4, 20 °C; RNA 3 µM, dye 6 µM; fluorescence diminished
[8] = test system: DIR2s_GAAACAC (RNA, aptamer) GGAUGCGCCUUGAAAAGCCUGCGAAACACGCAGCUGGUGAAUGACAGCUAUGGCGCAUCC; assay: fluorescence titration; settings: 150 mM NaCl, 5 mM MgCl2; 50 mM Tris pH 7.4, 20 °C; construct assigned from review file b5063
[9] = test system: Abasic A40 (RNA, aptamer, abasic at 40) GGAUGCGCCUUGAAAAGCCUGCGAAACACGCAGCUGGUGNAUGACAGCUAUGGCGCAUCC; assay: fluorescence activation; settings: 150 mM NaCl, 5 mM MgCl2; 50 mM Tris pH 7.4, 20 °C; RNA 3 µM, dye 6 µM; fluorescence diminished
[10] = test system: A15C; A40, A41 to G (RNA, aptamer) GGAUGCGCCUUGAACAGCCUGCGAAACACGCAGCUGGUGGGUGACAGCUAUGGCGCAUCC; assay: fluorescence activation; settings: 150 mM NaCl, 5 mM MgCl2; 50 mM Tris pH 7.4, 20 °C; RNA 3 µM, dye 6 µM; fluorescence abolished
[11] = test system: 5 bp P1 (RNA, aptamer) GGCCUUGAAAAGCCUGCGAAACACGCAGCUGGUGAAUGACAGCUAUGGCC; assay: fluorescence activation; settings: 150 mM NaCl, 5 mM MgCl2; 50 mM Tris pH 7.4, 20 °C; RNA 3 µM, dye 6 µM; fluorescence as WT
[12] = test system: 0 bp P1 (RNA, aptamer) GGAAAAGCCCGCGAAACACGCAGCUGGUGAAUGACAGCU; assay: fluorescence activation; settings: 150 mM NaCl, 5 mM MgCl2; 50 mM Tris pH 7.4, 20 °C; RNA 3 µM, dye 6 µM; ca. 80% of WT fluorescence
[13] = test system: DIR2s_GAAACAC (RNA, aptamer) GGAUGCGCCUUGAAAAGCCUGCGAAACACGCAGCUGGUGAAUGACAGCUAUGGCGCAUCC; assay: fluorescence competition; settings: 150 mM NaCl, 5 mM MgCl2; 50 mM Tris pH 7.4, 20 °C; OTB-SO3 displaced, 500 nM RNA, 600 nM OTB-SO3
[14] = test system: Fab BL3-6, PDB:6DB9_2+PDB:6DB9_3; assay: filter binding; settings: 5 mM Mg2+; no dye mentioned; Filter binding: 50 mM Tris pH 7.4, 150 mM NaCl, 5 mM MgCl2, 0.1 U/uL RNase inhibitor, 2 nM-2 uM Fab, 30 min; RNA refolded at 50 C then RT (binding temperature …)

binding [1]: yes
Compound: CN1C=CC(=Cc2sc3ccccc3[n+]2CC(=O)NCCOCCOCCOCCNC(=O)CCCC[C@@H]2SC[C@@H]3NC(=O)N[C@@H]32)c2ccccc21

binding [2]: yes
binding [3]: no
binding [4]: yes
binding [5]: yes
binding [6]: yes
binding [7]: weak
Kd [8]: 708 ± 16 nM
binding [9]: weak
binding [10]: no
binding [11]: yes
binding [12]: yes
Compound: CN1/C(=C/c2sc3ccccc3[n+]2CCCS(=O)(=O)[O-])Oc2ccccc21

binding [13]: yes
Compound: CN1C(=CC=Cc2cc[n+](CCCS(=O)(=O)[O-])c3ccccc23)C(C)(C)c2ccccc21

Compound: GGAUGCGCCUUGAAAAGCCUGCGAAACACGCAGCUGGUGAAUGACAGCUAUGGCGCAUCC [DIR2s_GAAACAC RNA]
pKd [14]: 7.17
